Test results from PubChem BioAssay AID493117 (Broad Institute, 2011).
Records with an inconclusive call do not appear. Calls of active or inactive are those of the source.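 The calls were made as follows: active = every test run gives a fitted half-maximal dose no higher than ten times the top tested dose, with signal falling; inconclusive = runs disagree, or a flat mid-level drop or poor fit; inactive = every test run inactive.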

These molecules were tested against Autoinducer 2-binding periplasmic protein LuxP (Vibrio harveyi) + Autoinducer 2 sensor kinase/phosphatase LuxQ (Vibrio harveyi) (UniProt P54300+P54302) (assay: AI-2 driven bioluminescence decrease, LuxPQ pathway – strain MM32 LuxS-null, luminescence, dry powder, set 3, mechanism study for V. harveyi quorum sensing inhibitors, dose response (AID 493117)). Conditions: AI-2 luminescence, 5 h.
Sequence of Autoinducer 2-binding periplasmic protein LuxP (Vibrio harveyi) + Autoinducer 2 sensor kinase/phosphatase LuxQ (Vibrio harveyi) (P54300 whole entry, looked up): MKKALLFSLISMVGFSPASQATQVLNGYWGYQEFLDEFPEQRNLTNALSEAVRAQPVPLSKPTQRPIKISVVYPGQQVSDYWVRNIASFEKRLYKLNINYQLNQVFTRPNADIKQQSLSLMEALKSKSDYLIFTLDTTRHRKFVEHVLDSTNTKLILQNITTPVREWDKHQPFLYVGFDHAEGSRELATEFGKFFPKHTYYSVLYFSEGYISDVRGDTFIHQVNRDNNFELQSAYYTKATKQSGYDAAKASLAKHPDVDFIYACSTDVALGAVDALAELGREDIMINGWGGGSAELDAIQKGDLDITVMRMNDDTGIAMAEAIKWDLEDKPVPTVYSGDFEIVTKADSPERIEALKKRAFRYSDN
Sequence of Autoinducer 2-binding periplasmic protein LuxP (Vibrio harveyi) + Autoinducer 2 sensor kinase/phosphatase LuxQ (Vibrio harveyi) (P54302 whole entry, looked up): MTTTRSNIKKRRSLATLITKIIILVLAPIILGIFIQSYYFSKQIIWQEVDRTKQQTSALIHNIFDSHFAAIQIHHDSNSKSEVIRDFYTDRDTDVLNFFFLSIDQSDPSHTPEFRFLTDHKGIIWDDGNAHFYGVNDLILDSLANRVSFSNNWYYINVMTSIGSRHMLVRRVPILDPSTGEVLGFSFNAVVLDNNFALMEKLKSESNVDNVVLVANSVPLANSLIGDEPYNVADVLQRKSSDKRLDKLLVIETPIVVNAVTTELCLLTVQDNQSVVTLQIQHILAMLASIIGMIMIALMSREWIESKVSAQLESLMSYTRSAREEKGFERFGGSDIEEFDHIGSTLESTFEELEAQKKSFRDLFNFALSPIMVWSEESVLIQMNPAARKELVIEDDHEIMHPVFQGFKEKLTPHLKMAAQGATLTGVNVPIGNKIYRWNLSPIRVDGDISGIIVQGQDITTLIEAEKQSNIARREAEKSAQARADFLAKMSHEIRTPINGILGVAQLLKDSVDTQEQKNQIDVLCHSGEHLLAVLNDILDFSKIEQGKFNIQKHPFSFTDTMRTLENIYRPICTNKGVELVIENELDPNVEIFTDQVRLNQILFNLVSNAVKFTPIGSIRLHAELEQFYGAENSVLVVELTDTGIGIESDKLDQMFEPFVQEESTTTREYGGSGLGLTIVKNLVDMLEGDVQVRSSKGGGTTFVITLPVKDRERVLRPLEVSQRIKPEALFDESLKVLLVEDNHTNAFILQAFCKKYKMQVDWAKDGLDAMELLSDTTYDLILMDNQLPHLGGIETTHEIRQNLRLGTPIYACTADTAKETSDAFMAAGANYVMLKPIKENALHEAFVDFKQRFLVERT

AC50	Compound
2.32 µM	C=Cn1c(C(=O)O)ccc1-c1ccc(CC)cc1
3.61 µM	CCc1ccc(-c2ccc(C(=O)O)n2C)cc1
2.42 µM	Cn1cnc(S(=O)(=O)Nc2ccc(OC(F)(F)F)cc2)c1
1.35 µM	O=S(=O)(Nc1ccccn1)c1ccc(Oc2ccccc2)cc1
0.591 µM	O=S(=O)(Nc1cccnc1)c1ccc(Oc2ccccc2)cc1
18.4 µM	Cc1noc(C)c1S(=O)(=O)Nc1ccc2c(c1)C(=O)N([C@@H](C)CO)C[C@@H](C)[C@@H](CN(C)Cc1ccc(Oc3ccccc3)cc1)O2
3.45 µM	O=C1C=C/C(=C/Br)O1
4.46 µM	C=Cn1c(C(=O)O)ccc1-c1ccc(Cl)cc1
11.3 µM	C[C@@H]1CN([C@H](C)CO)C(=O)c2ccccc2-c2ccccc2CO[C@@H]1CN(C)Cc1ccc(Oc2ccccc2)cc1
7.08 µM	C=Cn1c(C(=O)O)ccc1-c1ccc(OC)cc1

Same assay, conditions: AI-2 luminescence, 5 h, at 16 µM (top of the series)

activity change, negative = inhibition	Compound
inactive	O=S(=O)(Nc1ccccn1)c1ccccc1
inactive	C[C@H](CO)N1C[C@H](C)[C@H](CN(C)Cc2ccc(C(=O)O)cc2)Oc2ncc(-c3ccc(C(=O)N(C)C)cc3)cc2C1=O
inactive	CN(C)C(=O)c1ccccc1NS(=O)(=O)c1cn(C)cn1
inactive	Cn1cnc(S(=O)(=O)Nc2ccccc2F)c1
inactive	C=Cn1c(C(=O)O)ccc1-c1cccs1
inactive	Cn1cnc(S(=O)(=O)Nc2ccccc2Cl)c1
inactive	CCc1ccc(-c2ccc(C(=O)O)n2CC)cc1
inactive	COc1ccccc1NS(=O)(=O)c1cn(C)cn1
inactive	Cc1ccccc1NS(=O)(=O)c1cn(C)cn1
inactive	CC(=O)Nc1ccccc1NS(=O)(=O)c1cn(C)cn1
